In patent US7981401B2, “Diuretic aerosols and methods of making and using them” (priority 2002, dated 2011):

Experiments:
[1] = assay type: in vivo, Beagle dog
Source text: This example is meant to illustrate one way in which toxicology and pharmacokinetic data may be investigated with respect to the bumetanide condensation aerosols described herein. Toxicology and pharmacokinetic data may be gathered by studying daily oropharyngeal inhalation of bumetanide condensation aerosols over a 14 day period using a beagle dog model.
Before treatment initiation, all animals are weighed and assigned to treatment groups using a randomization procedure. Animals are assigned into the following groups: bumetanide high dose, bumetanide mid dose, bumetanide low dose, and vehicle control at 3 animals per sex per dose. The dose levels for bumetanide are generally approximately 0.1 mg/kg for the low dose group, 0.5 mg/kg for the mid dose group, and 2 mg/kg for the high dose group. The dose levels can be refined through an initial dose ranging toxicology study.
Animals are treated with the test aerosols using an oropharyngeal face mask fitted with inlet and outlet tubes. During treatment, animals are placed in a restraint sling. A mask that allows the inhalation of test material to dogs is used. The test article is generated by vaporizing bumetanide by heating to roughly 400° C. The bumetanide is an approximately 1 micron thick film coating on a stainless steel foil, which was deposited on the foil by dip coating the foil into a solution of bumetanide dissolved in organic solvent.
The resulting aerosol formed by the condensation of the vaporized bumetanide is introduced into a mixing chamber via pre-dried compressed air. The mixing chamber is operated under slight positive pressure maintained by means of a gate valve located in the exhaust line. A vacuum pump is used to exhaust the inhalation chamber at the required flow rate and draw the contaminated air (excess aerosol and expired air) through a purifying system consisting of a 5 μm coarse filter before expelling the air from the building. The resulting atmosphere is carried to the dog mask via a delivery tube.
To ensure that the doses are correct, prior to the start of the treatment each day, atmosphere characterization of the test article aerosol is performed. Analysis of the aerosol particle size distribution for each bumetanide dose is conducted using a Cascade Impactor. Typical mass median aerodynamic diameter and geometric standard deviation measured during the study are 1.5 μm±2. Actual mask output concentrations of aerosol are measured during each exposure day from a sampling port from the animal breathing zone.
The achieved dose of active ingredient (mg/kg/day) for each treatment level is determined as follows: Achieved Dose of Active Ingredient=[RMV×Active Concentration×T×D]/BW
Where the achieved dose of the active ingredient is in mg/kg/day; the RMV (i.e., respiratory minute volume) is in L/min; the Active Concentration (i.e., chamber concentration of active ingredient determined by chemical analysis) is in mg/L; T (i.e., treatment time) is in minutes; D is the total aerosol deposition fraction, according to the particle size; and BW (i.e., mean body weight per sex per group from the regular body weight occasions during treatment) is in kg.
Dogs are treated with the bumetanide aerosol using the above approach to deliver the drug aerosol and compute the delivered dose. The exposure period required to deliver a dose is typically approximately 10 minutes. Plasma samples for pharmacokinetic analysis are collected on one or more treatment days. Samples are typically collected pre-dose, 2 minutes into dosing, and the end of dosing, 20 minutes post dose, 1 hour post dose, 3 hours post dose, 9 hours post dose, and 24 hours post dose. Samples are analyzed by an appropriate method such as LC/MS or LC/MS/MS to determine the pharmacokinetics of bumetanide absorption and elimination. […]

[2] = Volatilization on flashbar and HPLC purity analysis of the condensation aerosol; assay type: physicochemical; settings: heated to about 400° C. within about 200 ms, 15 L/min air
Source text: Purity of a diuretic containing aerosol may be determined using a number of different methods. It should be noted that when the term “purity” is used, it refers to the percentage of aerosol minus the percent byproduct produced in its formation. Byproducts for example, are those unwanted products produced during vaporization. For example, byproducts include thermal degradation products as well as any unwanted metabolites of the active compound or compounds. Examples of suitable methods for determining aerosol purity are described in Sekine et al., Journal of Forensic Science 32:1271-1280 (1987) and in Martin et al., Journal of Analytic Toxicology 13:158-162 (1989).
One suitable method involves the use of a trap. In this method, the aerosol is collected in a trap in order to determine the percent or fraction of byproduct. Any suitable trap may be used. Suitable traps include filters, glass wool, impingers, solvent traps, cold traps, and the like. Filters are often most desirable. The trap is then typically extracted with a solvent, e.g. acetonitrile, and the extract subjected to analysis by any of a variety of analytical methods known in the art, for example, gas, liquid, and high performance liquid chromatography particularly useful.
(§1) About 1.1 mg of ethacrynic acid (MW 303, melting point 122° C., oral dose 25 mg) was dip coated onto the stainless steel surface of a flashbar apparatus at a thickness of about 1.32 μm. (The flashbar is a cylinder 3.5 cm long and 1.3 cm in diameter consisting of a hollow tube of 0.005″ thick stainless steel.) Brass electrodes were connected to either end of the steel cylinder. The coated flashbar was secured in an electrical mount, which connected to two 1.0 Farad capacitors in parallel. An airway was provided by a 2 cm diameter glass sleeve placed around the flashbar. 15 L/min of room air were pulled by a house vacuum through the vaporization chamber and a filter housing, which contained a two-micron Teflon filter. A power supply charged the capacitors to 20.5 volts, at which point the circuit was closed with a switch and the stainless steel flashbar was resistively heated to about 400° C. within about 200 milliseconds. The drug aerosolized and flowed through the airway and into the filter. The Teflon filter was extracted with 5 mL of acetonitrile, and the sample was run through an HPLC for purity analysis.
as §1, with “1.01” for “1.1”, “1.21” for “1.32”
About 1.09 mg of bumetanide (MW 364, melting point 231° C., oral dose 0.5 mg) was dip coated onto the stainless steel surface of a flashbar apparatus at a thickness of about 1.3 μm. (The flashbar is a cylinder 3.5 cm long and 1.3 cm in diameter consisting of a hollow tube of 0.005″ thick stainless steel.) Brass electrodes were connected to either end of the steel cylinder. The coated flashbar was secured in an electrical mount, which connected to two 1.0 Farad capacitors in parallel. […]

With `CCCCNc1cc(C(=O)O)cc(S(N)(=O)=O)c1Oc1ccccc1` [bumetanide] the “mass median aerodynamic diameter of the aerosol” value ([1]; Cascade Impactor, typical value during the study) was 1.5 μm, the food consumption ([1]; dog, in vivo) was “roughly normal” and the “gross pathology at necropsy” value ([1]; dog, in vivo) was “No treatment related findings”. For the same compound, the “histopathological examination of gross lesions” value ([1]; dog, in vivo) was “no treatment related findings”, the “histopathological examination of larynx, trachea, mainstem bronchi, lungs” value ([1]; dog, in vivo) was “No treatment related abnormalities are observed” and the “time of peak plasma levels” value ([1]; dog, in vivo) was ≤ 10 min. The “duration of the increase in urination following treatment” value ([1]; dog, inhalation) was “approximately 4 hour”, the “urination immediately following drug administration” value ([1]; dog, inhalation) was “an increase in urination is noted” and the “aerosol purity (HPLC)” value ([2]; film about 1.3 μm on stainless steel) was 98.44%.
In the case of `C=C(CC)C(=O)c1ccc(OCC(=O)O)c(Cl)c1Cl` [ethacrynic acid], the “aerosol purity (HPLC)” value ([2]; film about 1.21 μm on stainless steel) is reported as 99.57% and the “aerosol purity (HPLC)” value ([2]; film about 1.32 μm on stainless steel) is reported as 99.83%.
With `CC(=O)S[C@@H]1CC2=CC(=O)CC[C@]2(C)[C@H]2CC[C@@]3(C)[C@@H](CC[C@@]34CCC(=O)O4)[C@H]12` [spironolactone] the “aerosol purity (HPLC)” value ([2]; film about 0.85 μm on stainless steel) was 100% and the “aerosol purity (HPLC)” value ([2]; film about 1.01 μm on stainless steel) was 100%.
With `Nc1nc(N)c2nc(-c3ccccc3)c(N)nc2n1` [triamterene] the “aerosol purity (HPLC)” value ([2]; film about 0.97 μm, from 88% formic acid) was 99.76% and the “aerosol purity (HPLC)” value ([2]; film about 1.11 μm, manually coated) was 100%.
